These results are taken from patent publication US20100016285A1, “HETEROCYCLIDENE-N-(ARYL) ACETAMIDE DERIVATIVE” (MOCHIDA PHARMACEUTICAL CO., LTD., priority 2007, published 2010).

The conditions of data set [1]: cited from earlier work; for Change of rat rectal temperature: reference information (Non-Patent Document 4 or 5); for Change in rectal temperature in rats: from published information (Non-Patent Document 4 or 5).
A short description of data set [2]: Effects on rectal temperature (8-1), oral administration to rats. In kind it is in vivo, rat. The following applies: oral single doses of 3, 10 and 30 mg/kg; 30, 60 and 120 minutes; maximum absolute difference vs vehicle. On the procedure:
(8-1) Effects on Rectal Temperature
A test compound was orally administered to rats at single doses of 3, 10 and 30 mg/kg. Then rectal temperature was measured 30, 60 and 120 minutes after administration.
(§1) Differences of the mean value between a group treated with test substance and a vehicle-treated group were calculated at all measuring points and, based on the maximum absolute value of differences, changes in rectal temperature were divided into the following three categories:
(§2) −: the maximum value was less than 0.5 degree Celsius +: the maximum value was more than 0.5 degree but less than 1.0 degree Celsius ++: the maximum value was more than 1.0 degree Celsius

A short description of data set [3]: Effects on rectal temperature (8-2), oral administration to rats. As to conditions: single dose of 10 mg/kg, 30, 60 and 120 minutes, maximum absolute difference vs vehicle. In kind it is in vivo, rat. As to the method:
(§3) (8-2) Effects on Rectal Temperature
A test compound was orally administered to rats at single dose of 10 mg/kg. Then rectal temperature was measured 30, 60 and 120 minutes after administration.
as §1, §2

Data set [4] can be described thus: Effects on rectal temperature (8-2), administration into tail veins of rats. The data set is classed as in vivo, rat. As to conditions: Intravenous, single dose of 1 mg/kg; 15, 30 and 60 minutes; maximum absolute difference vs vehicle. On the procedure:
as §3
A test compound was administered to rats into tail veins at single dose of 1 mg/kg. Then rectal temperature was measured 15, 30 and 60 minutes after administration.
as §1, §2

Data set [5] has as its target T1, human TRPV1 (Homo sapiens, UniProt Q8NER1).
T1 construct: expressed in transfected cells; host or cells: CHO-K1 cells, pCAGGS vector, clones selected by limiting dilution
The experiment in a line: Capsaicin-induced Ca influx in transformed CHO cells, FDSS-6000 (b-1), A2 value. In kind it is cell-based. The following applies: concentration shifting the capsaicin concentration-reaction curve two times rightward; CHO cells expressing TRPV1.

In data set [6] the target is T1, human TRPV1. The experiment in a line: Capsaicin (10 nmol/L)-induced Ca influx in transformed CHO cells, FDSS-6000 (b-2), IC50. The data set is classed as cell-based. The text has this:
(1) Measurement of Capsaicin-Induced Ca Influx in a Transformed CHO Cell Line Expressing Human TRPV1
(a) Establishment of a Transformed CHO Cell Line Expressing Human and Rat TRPV1
Human and rat vanilloid receptor 1 (hTRPV1 and rTRPV1) cDNA was cloned from human brain and rat dorsal root ganglion, respectively. The cloned TRPV1 cDNA was incorporated in a pCAGGS vector. The vector was introduced to a CHO-K1 cell line, thus performing transformation. Clones obtained by limiting dilution were stimulated with capsaicin. Clones with a high responsiveness were selected using an increase in the Ca concentration as an indicator. The selected clones were used for the following experiment.
(b-2) Measurement of Ca Influx using FDSS-6000
The transformed CHO cells expressing human or rat TRPV1 were inoculated in a 96-well plate (with black walls and transparent bottoms, manufactured by Greiner) at a density of 40,000 cells per well. The cells were cultured at 37° C. in 5% CO2 atmosphere for one night. A loading solution of FLIPR Calcium 3 assay kit (manufactured by Molecular Devices Corporation) containing 2.5 mmol/L of probenecid was then added to each of the wells in the same amount as the culture medium, and the cells were cultured at 37° C. for 60 minutes. For three minutes after the cells were stimulated with capsaicin (10 nmol/L), the change of the intracellular Ca concentration was measured using FDSS-6000 (λex: 480 nm, λem: 540 nm, manufactured by Hamamatsu Photonics K.K.). The integrated values of the increase rate of the intracellular Ca concentration were calculated for a group treated with the compounds of the present invention and a group treated with a vehicle. Then, the concentration of the compound of the present invention was calculated that inhibits 50% of the intracellular Ca concentration increase induced by capsaicin (IC50). Using this value as the index, inhibitory effects of the test compounds were compared. In addition, when IC50 value in human TRPV1 was less than 100 nmol/L, it was shown as A in Table 1C.

Read-outs that look alike come from different tables or passages of the source. Where only a bound is given, the exact number is not on record here.

In general, IC50 refers to the point on the concentration scale where inhibition reaches its midpoint. High values mean weaker potency, low ones greater potency.

T1 sequence (Q8NER1 whole entry): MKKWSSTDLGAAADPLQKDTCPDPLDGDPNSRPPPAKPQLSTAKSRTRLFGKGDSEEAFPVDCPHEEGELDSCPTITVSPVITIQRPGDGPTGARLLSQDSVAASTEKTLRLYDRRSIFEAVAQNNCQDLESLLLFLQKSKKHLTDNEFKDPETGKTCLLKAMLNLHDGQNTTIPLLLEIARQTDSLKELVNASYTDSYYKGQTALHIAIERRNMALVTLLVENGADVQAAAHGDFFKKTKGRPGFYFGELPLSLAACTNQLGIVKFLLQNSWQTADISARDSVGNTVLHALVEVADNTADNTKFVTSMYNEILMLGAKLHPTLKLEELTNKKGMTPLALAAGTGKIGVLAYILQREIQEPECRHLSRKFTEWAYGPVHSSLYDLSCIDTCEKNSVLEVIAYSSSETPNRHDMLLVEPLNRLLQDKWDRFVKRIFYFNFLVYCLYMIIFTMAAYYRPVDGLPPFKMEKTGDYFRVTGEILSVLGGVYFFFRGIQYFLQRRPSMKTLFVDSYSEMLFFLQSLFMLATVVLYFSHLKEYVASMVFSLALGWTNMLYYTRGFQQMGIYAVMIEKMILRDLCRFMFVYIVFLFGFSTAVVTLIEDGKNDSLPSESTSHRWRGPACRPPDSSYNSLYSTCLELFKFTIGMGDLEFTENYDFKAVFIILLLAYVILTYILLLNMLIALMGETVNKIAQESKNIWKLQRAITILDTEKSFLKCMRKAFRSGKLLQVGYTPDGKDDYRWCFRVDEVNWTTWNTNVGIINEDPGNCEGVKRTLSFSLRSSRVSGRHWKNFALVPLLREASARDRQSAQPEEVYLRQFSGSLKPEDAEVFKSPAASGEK

Take `O=C(Nc1ccc(C(F)(F)F)cn1)N1CCN(c2ncccc2C(F)(F)F)CC1` [Compound A, 4-(3-trifluoromethylpyridine-2-yl)-N-(5-trifuluoromethylpiridine-2-yl)-1-piperadinecarboxamide]: the “Change of rat rectal temperature” value in data set [1] (Oral) is “Increase^1)”. In data set [1], the “Change in rectal temperature in rats” value is given as “increased^1)”.
On to `CC(C)(C)c1ccc(/C=C/C(=O)Nc2ccc3c(c2)OCCO3)cc1` [Compound B, (E)-3-(4-t-butylphenyl)-N-(2,3-dihydrobenzo[b][1,4]dioxine-6-yl)acrylamide], for which the “Change of rat rectal temperature” value in data set [1] (Intraperitoneal) is listed as “Increase^1)”. The “Change in rectal temperature in rats” value in data set [1] is “Increased^1)”.
With `CC(=O)Nc1nc2c(Oc3cc(-c4ccc(C(F)(F)F)cc4)ncn3)cccc2s1` [Compound C, N-(4-[6-(4-trifluoromethyl-phenyl)-pyrimidin-4-yloxy]-benzothiazol-2-yl)-acetamide, reference compound], the “Change in rectal temperature in rats” value in data set [2] is on record as “++ (increased) (the maximum value was more than 1.0 degree Celsius)”. Moreover, in data set [3], the “Change of rat rectal temperature” value is listed as “++ (Increase) (the maximum value was more than 1.0 degree Celsius)”.
`O=C(/C=C1\CCCOc2cc(C(F)(F)F)ccc21)Nc1cccc2c1CC(O)CN2` (centres unmarked) [Compound D, (E)-2-(8-trifluoromethyl-3,4-dihydrobenzo[b]oxepin-5(2H)-ylidene)-N-(3-hydroxy-1,2,3,4-tetrahydroquinolin-5-yl)acetamide, reference compound]: the “Change of rat rectal temperature” value in data set [4] is recorded as “+ (Increase) (the maximum value was more than 0.5 degree but less than 1.0 degree Celsius)”. The “Change in rectal temperature in rats” value in data set [2] was “++ (increased) (the maximum value was more than 1.0 degree Celsius)”.
For `CC1(C)N/C(=C\C(=O)Nc2ccc3c(c2)NC(=O)CC3)c2ccc(C(F)(F)F)cc2O1` [EXAMPLE 26, (Z)-2-(6-trifluoromethyl-3,3-dimethyl-4-oxa-3,4-dihydroisoquinolin-1(2H)-ylidene)-N-(3,4-dihydroquinolin-2(1H)-on-7-yl)acetamide], the “Change in rectal temperature in rats” value in data set [2] is recorded as “− (the maximum value was less than 0.5 degree Celsius)”. In addition, the A2 value result in data set [5] is recorded as “A (A2 value of less than 100 nM)”.
Consider `CN1C(=O)NCc2c(NC(=O)/C=C3\CCCOc4cc(C(F)(F)F)ccc43)cccc21` [Example 302, (E)-2-(3,4-dihydro-8-trifluoromethyl-1-benzoxepin-5(2H)-ylidene)-N-(3,4-dihydro-1-methyl-2(1H)-quinazolinone-5-yl)acetamide], for which, in data set [6], the IC50 was < 100 nM.
As to `CN1C(=O)NCc2c(NC(=O)/C=C3\CCOCc4cc(C(F)(F)F)ccc43)cccc21` [Example 303, (E)-2-(3,4-dihydro-8-trifluoromethyl-2-benzoxepin-5(1H)-ylidene)-N-(3,4-dihydro-1-methyl-2(1H)-quinazolinone-5-yl)acetamide], the IC50 in data set [6] is < 100 nM.
On to `CN1C(=O)NCc2c(NC(=O)/C=C3\CCOc4cc(C(F)(F)F)ccc43)cccc21` [Example 304, (E)-2-(7-trifluoromethylchroman-4-ylidene)-N-(3,4-dihydro-1-methyl-2(1H)-quinazolinone-5-yl)acetamide], for which the IC50 in data set [6] is < 100 nM.
As to `CN1C(=O)NCc2c(NC(=O)/C=C3\CC(C)(C)Oc4cc(C(F)(F)F)ccc43)cccc21` [Example 305, (E)-2-(2,2-dimethyl-7-trifluoromethylchroman-4-ylidene)-N-(3,4-dihydro-1-methyl-2(1H)-quinazolinone-5-yl)acetamide], the “Change of rat rectal temperature” value in data set [4] is given as “− (the maximum value was less than 0.5 degree Celsius)”. Also, the IC50 in data set [6] is < 100 nM.
As to `CCN1C(=O)NCc2c(NC(=O)/C=C3\CCCOc4cc(C(F)(F)F)ccc43)cccc21` [Example 306, (E)-2-(3,4-dihydro-B-trifluoromethyl-1-benzoxepin-5(2H)-ylidene)-N-(3,4-dihydro-1-ethyl-2(1H)-quinazolinone-5-yl)acetamide], the IC50 in data set [6] is < 100 nM.
In the case of `CCN1C(=O)NCc2c(NC(=O)/C=C3\CCOCc4cc(C(F)(F)F)ccc43)cccc21` [Example 307, (E)-2-(3,4-dihydro-8-trifluoromethyl-2-benzoxepin-5(1H)-ylidene)-N-(3,4-dihydro-1-ethyl-2(1H)-quinazolinone-5-yl)acetamide], the IC50 in data set [6] is < 100 nM.
Consider `CCN1C(=O)NCc2c(NC(=O)/C=C3\CCOc4cc(C(F)(F)F)ccc43)cccc21` [Example 308, (E)-2-(7-trifluoromethylchroman-4-ylidene)-N-(3,4-dihydro-1-ethyl-2(1H)-quinazolinone-5-yl)acetamide], for which the IC50 in data set [6] is < 100 nM.
Regarding `CCN1C(=O)NCc2c(NC(=O)/C=C3\CC(C)(C)Oc4cc(C(F)(F)F)ccc43)cccc21` [Example 309, (E)-2-(2,2-dimethyl-7-trifluoromethylchroman-4-ylidene)-N-(3,4-dihydro-1-ethyl-2(1H)-quinazolinone-5-yl)acetamide], the IC50 in data set [6] is < 100 nM.
On the same count and under the same terms, with `CCN1C(=O)NCc2c(NC(=O)/C=C3\CC(CC)(CC)Oc4cc(C(F)(F)F)ccc43)cccc21` [Example 310, (E)-2-(2,2-diethyl-7-trifluoromethylchroman-4-ylidene)-N-(3,4-dihydro-1-ethyl-2(1H)-quinazolinone-5-yl)acetamide] the figure was < 100 nM; with `CCN1C(=O)NCc2c(NC(=O)/C=C3\CC(COC)(COC)Oc4cc(C(F)(F)F)ccc43)cccc21` [Example 311, (E)-2-(2,2-bis(methoxymethyl)-7-trifluoromethylchroman-4-ylidene)-N-(3,4-dihydro-1-ethyl-2(1H)-quinazolinone-5-yl)acetamide], < 100 nM; with `CCN1C(=O)NCc2c(NC(=O)/C=C3\CC4(CCOCC4)Oc4cc(C(F)(F)F)ccc43)cccc21` [Example 312, (E)-2-(7-trifluoromethyl-spiro[chroman-2,4′-tetrahydropyran]-4-ylidene)-N-(3,4-dihydro-1-ethyl-2(1H)-quinazolinone-5-yl)acetamide], < 100 nM.
Same read-out and setting: next, `CN1C(=O)NCc2c(NC(=O)/C=C3\NC(C)(C)Oc4cc(C(F)(F)F)ccc43)cccc21` [Example 313, (Z)-2-(2,3-dihydro-2,2-dimethyl-7-trifluoromethyl-4H-1,3-benzoxazin-4-ylidene)-N-(3,4-dihydro-1-methyl-2(1H)-quinazolinone-5-yl)acetamide]: < 100 nM.
